Experimental data reported in the NIST ThermoML archive (doi:10.1021/je100577v).
± gives the expanded uncertainty stated by the source.

Assay: xn = mol fraction of the nth substance listed
Conditions: Liquid, Vibrating tube method

CC12CCC(CC1)C(C)(C)O2 [1,3,3-trimethyl-2-oxabicyclo[2.2.2]octane] + CCCO
mass density [kg/m3]
Conditions	20000 kPa	25000 kPa	30000 kPa	35000 kPa	40000 kPa
283.15 K, x1 = 0.0499	839.5 ± 1	842.9 ± 1	845.8 ± 1	848.9 ± 1	851.6 ± 1
283.15 K, x1 = 0.1061	853.7 ± 1	856.9 ± 1	859.8 ± 1	862.8 ± 1	865.5 ± 1
283.15 K, x1 = 0.2029	873.3 ± 1	876.4 ± 1	879.3 ± 1	882.3 ± 1	885 ± 1
283.15 K, x1 = 0.3028	889.7 ± 1	892.8 ± 1	895.6 ± 1	898.6 ± 1	901.4 ± 1
283.15 K, x1 = 0.3955	901.8 ± 1	905 ± 1	907.9 ± 1	910.7 ± 1	913.5 ± 1
283.15 K, x1 = 0.4938	912.4 ± 1	915.6 ± 1	918.5 ± 1	921.3 ± 1	924 ± 1
283.15 K, x1 = 0.5904	921.2 ± 1	924.4 ± 1	927.3 ± 1	930.1 ± 1	932.9 ± 1
283.15 K, x1 = 0.7	929.6 ± 1	932.8 ± 1	935.7 ± 1	938.5 ± 1	941.2 ± 1
283.15 K, x1 = 0.7915	935.7 ± 1	938.9 ± 1	941.7 ± 1	944.6 ± 1	947.3 ± 1
283.15 K, x1 = 0.8954	941.2 ± 1	944.3 ± 1	947.2 ± 1	950.1 ± 1	952.8 ± 1
283.15 K, x1 = 0.9332	942.9 ± 1	946.1 ± 1	949 ± 1	951.8 ± 1	954.5 ± 1
283.15 K, x1 = 1	945.9 ± 1	949.1 ± 1	952 ± 1	954.9 ± 1	957.6 ± 1
298.15 K, x1 = 0.0499	828.6 ± 1	831.8 ± 1	835.1 ± 1	838.1 ± 1	841.2 ± 1.1
298.15 K, x1 = 0.1061	842.6 ± 1	845.8 ± 1	849 ± 1	852 ± 1	855 ± 1
298.15 K, x1 = 0.2029	862 ± 1	865.2 ± 1	868.4 ± 1	871.4 ± 1	874.4 ± 1
298.15 K, x1 = 0.3028	878.3 ± 1	881.6 ± 1	884.7 ± 1	887.7 ± 1	890.6 ± 1
298.15 K, x1 = 0.3955	890.5 ± 1	893.7 ± 1	896.7 ± 1	899.8 ± 1	902.7 ± 1
298.15 K, x1 = 0.4938	901 ± 1	904.3 ± 1	907.3 ± 1	910.3 ± 1	913.2 ± 1
298.15 K, x1 = 0.5904	909.7 ± 1	912.9 ± 1	915.9 ± 1	918.9 ± 1	921.9 ± 1
298.15 K, x1 = 0.7	917.9 ± 1	921.1 ± 1	924.2 ± 1	927.1 ± 1	930.1 ± 1
298.15 K, x1 = 0.7915	923.9 ± 1	927.1 ± 1	930.2 ± 1	933.2 ± 1	936.1 ± 1
298.15 K, x1 = 0.8954	929.4 ± 1	932.6 ± 1	935.7 ± 1	938.8 ± 1	941.6 ± 1
298.15 K, x1 = 0.9332	931.1 ± 1	934.3 ± 1	937.3 ± 1	940.3 ± 1	943.3 ± 1
298.15 K, x1 = 1	934.1 ± 1	937.4 ± 1	940.5 ± 1	943.4 ± 1	946.4 ± 1
313.15 K, x1 = 0.0499	817.1 ± 1	820.8 ± 1	824.3 ± 1	827.5 ± 1.1	830.7 ± 1.1
313.15 K, x1 = 0.1061	831 ± 1	834.7 ± 1	838.1 ± 1	841.3 ± 1	844.5 ± 1.1
313.15 K, x1 = 0.2029	850.4 ± 1	854 ± 1	857.4 ± 1	860.7 ± 1	863.9 ± 1
313.15 K, x1 = 0.3028	866.6 ± 1	870.2 ± 1	873.5 ± 1	876.7 ± 1	879.8 ± 1
313.15 K, x1 = 0.3955	878.6 ± 1	882.2 ± 1	885.5 ± 1	888.7 ± 1	891.7 ± 1
313.15 K, x1 = 0.4938	889.1 ± 1	892.6 ± 1	895.9 ± 1	899 ± 1	902.1 ± 1
313.15 K, x1 = 0.5904	897.7 ± 1	901.2 ± 1	904.5 ± 1	907.6 ± 1	910.8 ± 1
313.15 K, x1 = 0.7	905.8 ± 1	909.3 ± 1	912.6 ± 1	915.8 ± 1	918.9 ± 1
313.15 K, x1 = 0.7915	911.8 ± 1	915.3 ± 1	918.6 ± 1	921.8 ± 1	924.9 ± 1
313.15 K, x1 = 0.8954	917.3 ± 1	920.8 ± 1	924 ± 1	927.3 ± 1	930.5 ± 1
313.15 K, x1 = 0.9332	919.1 ± 1	922.5 ± 1	925.9 ± 1	929.1 ± 1	932.2 ± 1
313.15 K, x1 = 1	922.3 ± 1	925.8 ± 1	929.1 ± 1	932.4 ± 1	935.5 ± 1
328.15 K, x1 = 0.0499	805.9 ± 1	809.7 ± 1	813.3 ± 1	816.8 ± 1.1	820.2 ± 1.1
328.15 K, x1 = 0.1061	819.7 ± 1	823.5 ± 1	827.1 ± 1	830.6 ± 1.1	833.9 ± 1.1
328.15 K, x1 = 0.2029	838.9 ± 1	842.6 ± 1	846.3 ± 1	849.6 ± 1	853.1 ± 1
328.15 K, x1 = 0.3028	854.9 ± 1	858.6 ± 1	862.1 ± 1	865.6 ± 1	868.9 ± 1
328.15 K, x1 = 0.3955	866.9 ± 1	870.5 ± 1	874 ± 1	877.4 ± 1	880.9 ± 1
328.15 K, x1 = 0.4938	877.2 ± 1	880.9 ± 1	884.4 ± 1	887.9 ± 1	891.2 ± 1
328.15 K, x1 = 0.5904	885.9 ± 1	889.6 ± 1	893.1 ± 1	896.5 ± 1	899.9 ± 1
328.15 K, x1 = 0.7	894 ± 1	897.7 ± 1	901.2 ± 1	904.6 ± 1	908 ± 1
328.15 K, x1 = 0.7915	899.9 ± 1	903.7 ± 1	907.2 ± 1	910.5 ± 1	913.9 ± 1
328.15 K, x1 = 0.8954	905.5 ± 1	909.3 ± 1	912.7 ± 1	916.2 ± 1	919.5 ± 1
328.15 K, x1 = 0.9332	907.3 ± 1	911 ± 1	914.5 ± 1	917.9 ± 1	921.3 ± 1
328.15 K, x1 = 1	910.6 ± 1	914.3 ± 1	917.9 ± 1	921.3 ± 1	924.7 ± 1
